Where two headings read alike, the source gives them in different places.
Molecular target: T1, GST-hCAR-LBD (Homo sapiens, UniProt Q14994)
T1 construct: purchased Life Technologies (Carlsbad, Calif.) or Invitrogen (Carlsbad, Calif.)
T1 sequence (Q14994 109-352 limits assumed): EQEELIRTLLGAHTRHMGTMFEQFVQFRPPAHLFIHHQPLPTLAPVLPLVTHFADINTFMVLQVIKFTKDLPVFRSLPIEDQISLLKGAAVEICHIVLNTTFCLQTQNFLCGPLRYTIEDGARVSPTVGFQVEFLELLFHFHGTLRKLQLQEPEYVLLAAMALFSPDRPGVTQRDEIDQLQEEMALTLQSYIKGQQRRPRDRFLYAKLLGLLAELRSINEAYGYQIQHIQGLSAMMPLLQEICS
Experiment: CoAct binding inverse agonist assay (LanthaScreen TR-FRET, fluorescent PGC-1α coactivator recruitment/repression)
Assay type: biochemical
Conditions: for inhibition at 70 µM: 70 μM compound, 42 μM clotrimazole = 100%, DMSO = 0%, read-out: % Inhibition (70 μM); for fold increase of IC50 (decrease of activity) relative to lead chemical 1 (CINPA1) / fold increase of CAR inverse agonistic activity (potency) over lead chemical 1 (CINPA1): relative to chemical 1
Description: The effect of putative CAR ligands on the recruitment or repression of PGC-1α binding to hCAR was evaluated by using a LanthaScreen TR-FRET assay according to the manufacturer's instructions. […] The final DMSO concentration was 0.7% in all assay wells. […] The % Inhibition values were then plotted for individual chemicals. When applicable, the graphic software GraphPad Prism 5.04 (GraphPad Software, La Jolla, Calif., USA) was used to fit the data into a one-site competitive-binding equation to derive IC50 values. […] The assay plates were then briefly spun down and incubated for 1 hour at room temperature (25° C.). […] The final DMSO concentration was 0.7% in all assay wells. […] The % Inhibition values were then plotted for individual chemicals. When applicable, the graphic software GraphPad Prism 5.04 (GraphPad Software, La Jolla, Calif., USA) was used to fit the data into a one-site competitive-binding equation to derive IC50 values.

[1] = read-out: IC50 (CAR inverse agonistic activity)
[2] = quoted in SAR text in nM, read-out: IC50 (CAR inverse agonistic activity)

For `CC(C)OC(=O)Nc1ccc2c(c1)N(C(=O)COC1CCC1)c1ccccc1CC2` [Compound 34, isopropyl (5-(2-cyclobutoxyacetyl)-10,11-dihydro-5H-dibenzo[b,f]azepin-3-yl)carbamate], the IC50 [1] was 38 nM.
Compound `O=C(Nc1ccc2c(c1)N(C(=O)c1cccs1)c1ccccc1CC2)OC1CCCCC1` [Compound 68] has an IC50 (Table 4, read-out: IC50) of 19 nM.
With `CC(C)(C)OC(=O)Nc1ccc2c(c1)N(C(=O)CN1CCCCC1)c1ccccc1CC2` [Compound 38, tert-butyl (5-(2-(piperidin-1-yl)acetyl)-10,11-dihydro-5H-dibenzo[b,f]azepin-3-yl)carbamate] the IC50 [1] was 220 nM.
In the case of `O=C(Nc1ccc2c(c1)N(C(=O)c1ccco1)c1ccccc1CC2)OC1CCCCC1` [Compound 69], the IC50 (Table 4, read-out: IC50) is reported as 50 nM.
With `CCOC(=O)Nc1ccc2c(c1)N(C(=O)CN1CCCC1)c1ccccc1CC2` [Compound 13, ethyl (5-(2-(pyrrolidin-1-yl)acetyl)-10,11-dihydro-5H-dibenzo[b,f]azepin-3-yl)carbamate] the inhibition at 70 µM was 115%, the IC50 (Table 4, read-out: IC50) was 1580 nM and the IC50 [2] was 1580 nM. For the same compound, the IC50 [1] was 1580 nM and the “fold increase of IC50 (decrease of activity) relative to lead chemical 1 (CINPA1)” value was “more than 2 fold”.
`CC(C)OC(=O)Nc1ccc2c(c1)N(C(=O)COC1COC1)c1ccccc1CC2` [Compound 49] gave an IC50 (Table 4, read-out: IC50) of 660 nM.
`CCOC(=O)Nc1ccc2c(c1)N(C(=O)CCN1CCOCC1)c1ccccc1CC2` [compound 85] was tested, and the IC50 [1] was 320 nM.
`CCOC(=O)Nc1ccc2c(c1)N(C(=O)Cn1ccnc1)c1ccccc1CC2` [Compound 17, ethyl (5-(2-(1H-imidazol-1-yl)acetyl)-10,11-dihydro-5H-dibenzo[b,f]azepin-3-yl)carbamate] was tested, and the inhibition at 70 µM was 101%, the IC50 [1] was 6890 nM and the “fold IC50 relative to chemical 16” value (relative to chemical 16) was 186 fold.
`CC(C)OC(=O)Nc1ccc2c(c1)N(C(=O)COC1CCCC1)c1ccccc1CC2` [Compound 35, isopropyl (5-(2-(cyclopentyloxy)acetyl)-10,11-dihydro-5H-dibenzo[b,f]azepin-3-yl)carbamate] gave an IC50 [1] of 20 nM.
In the case of `CCOC(=O)Nc1ccc2c(c1)N(C(=O)CCN(CC)CC)c1ccccc1CC2` [Compound 22, ethyl (5-(3-(diethylamino)propanoyl)-10,11-dihydro-5H-dibenzo[b,f]azepin-3-yl)carbamate], the inhibition at 70 µM is reported as 119%, the IC50 [1] is reported as 2430 nM and the “fold increase of IC50 (decrease of activity) relative to lead chemical 1 (CINPA1)” value is reported as 3.5 fold.
`O=C(Nc1ccc2c(c1)N(C(=O)Cn1cccc1)c1ccccc1CC2)N1CCCC1` [Compound 45] was tested, and the IC50 (Table 4, read-out: IC50) was 280 nM.
For `CC(C)OC(=O)Nc1ccc2c(c1)N(C(=O)COC1CCCCC1)c1ccccc1CC2` [Compound 36, isopropyl (5-(2-(cyclohexyloxy)acetyl)-10,11-dihydro-5H-dibenzo[b,f]azepin-3-yl)carbamate], the IC50 [1] was 24 nM.
In the case of `O=C(Nc1ccc2c(c1)N(C(=O)Cn1cccc1)c1ccccc1CC2)OC1CCCC1` [Compound 43, cyclopentyl (5-(2-(1H-pyrrol-1-yl)acetyl)-10,11-dihydro-5H-dibenzo[b,f]azepin-3-yl)carbamate], the IC50 [1] is reported as 14 nM.
For `CCOC(=O)Nc1ccc2c(c1)N(C(=O)Cn1cccc1)c1ccccc1CC2` [Compound 16, ethyl (5-(2-(1H-pyrrol-1-yl)acetyl)-10,11-dihydro-5H-dibenzo[b,f]azepin-3-yl)carbamate], the inhibition at 70 µM was 121%, the IC50 [1] was 37 nM and the “fold increase of CAR inverse agonistic activity (potency) over lead chemical 1 (CINPA1)” value was 19 fold. The “fold more potent than chemical 13” value (relative to chemical 13) was 43 fold.
`CCOC(=O)Nc1ccc2c(c1)N(C(=O)CN(CC)CC)c1ccccc1CC2` [1 (CINPA1)] gave an IC50 (Table 6, CINPA1 and commercially available analogs, read-out: IC50) of 690 nM.
For `CC(C)OC(=O)Nc1ccc2c(c1)N(C(=O)CCN(C)C)c1ccccc1CC2` [compound 89], the IC50 [1] was 1790 nM and the “fold increase of potency compared to chemical 86” value (relative to chemical 86) was “about 3 fold”.
Compound `CC(C)OC(=O)Nc1ccc2c(c1)N(C(=O)Cc1ccco1)c1ccccc1CC2` [Compound 63] has an IC50 (Table 4, read-out: IC50) of 37 nM.
In the case of `CC(C)OC(=O)Nc1ccc2c(c1)N(C(=O)n1cccc1)c1ccccc1CC2` [Compound 55], the IC50 (Table 4, read-out: IC50) is reported as 18 nM.
`CCN(CC)CCC(=O)N1c2ccccc2CCc2ccc(NC(=O)OC(C)C)cc21` [Compound 25, isopropyl (5-(3-(diethylamino)propanoyl)-10,11-dihydro-5H-Dibenzo[b,f]azepin-3-yl)carbamate] gave an IC50 [1] of 6400 nM.
For `O=C(Cn1cccc1)N1c2ccccc2CCc2ccc(NC(=O)n3cccc3)cc21` [Compound 46], the IC50 (Table 4, read-out: IC50) was 81 nM.
Work on `COC(=O)Nc1ccc2c(c1)N(C(=O)CCN1CCOCC1)c1ccccc1CC2` [compound 87] yielded an IC50 [1] of 290 nM.
`CCOC(=O)Nc1ccc2c(c1)N(C(=O)CN1CCN(C)CC1)c1ccccc1CC2` [compound 81] was tested, and the IC50 [1] was 38800 nM and the “fold increase of IC50 (decrease of activity) relative to lead chemical 1 (CINPA1)” value was 56 fold.
For `CCCN(CCC)CC(=O)N1c2ccccc2CCc2ccc(NC(=O)OCC)cc21` [Compound 11, ethyl (5-(dipropylglycyl)-10,11-dihydro-5H-dibenzo[b,f]azepin-3-yl)carbamate], the inhibition at 70 µM was 113%, the IC50 [1] was 210 nM and the “fold increase of CAR inverse agonistic activity (potency) over lead chemical 1 (CINPA1)” value was 3 fold.
Work on `CC(C)OC(=O)Nc1ccc2c(c1)N(C(=O)c1cccs1)c1ccccc1CC2` [Compound 64] yielded an IC50 (Table 4, read-out: IC50) of 12 nM.
Compound `O=C(Nc1ccc2c(c1)N(C(=O)OC1CCCC1)c1ccccc1CC2)OC1CCCCC1` [Compound 60] has an IC50 (Table 4, read-out: IC50) of 17 nM.
With `O=C(Nc1ccc2c(c1)N(C(=O)Cn1cccc1)c1ccccc1CC2)N1CCOCC1` [Compound 48] the IC50 (Table 4, read-out: IC50) was 370 nM.
In the case of `O=C(Nc1ccc2c(c1)N(C(=O)Cn1cccc1)c1ccccc1CC2)N1CCCCC1` [Compound 47], the IC50 (Table 4, read-out: IC50) is reported as 99 nM.
For `CCOC(=O)Nc1ccc2c(c1)N(C(=O)CNC(C)(C)C)c1ccccc1CC2` [compound 83], the IC50 [1] was 3630 nM and the “fold increase of IC50 (decrease of activity) relative to lead chemical 1 (CINPA1)” value was 5 fold.
`CCCC(=O)Nc1ccc2c(c1)N(C(=O)CN(CC)CC)c1ccccc1CC2` [Compound 2, N-(5-(diethylglycyl)-10,11-dihydro-5H-dibenzo[b,f]azepin-3-yl)butyramide] showed an inhibition at 70 µM of 106% and an IC50 [2] of 2320 nM.
With `O=C(Nc1ccc2c(c1)N(C(=O)COC1CCCC1)c1ccccc1CC2)OC1CCCCC1` [Compound 51] the IC50 (Table 4, read-out: IC50) was 65 nM.
`CCCN(CCC)CC(=O)N1c2ccccc2CCc2ccc(NC(=O)OC(C)C)cc21` [Compound 28, isopropyl (5-(dipropylglycyl)-10,11-dihydro-5H-dibenzo[b,f]azepin-3-yl)carbamate] showed an IC50 [1] of 120 nM.
`CC(C)(C)COC(=O)N1c2ccccc2CCc2ccc(NC(=O)OC3CCCCC3)cc21` [Compound 61] showed an IC50 (Table 4, read-out: IC50) of 41 nM.
For `CC(C)OC(=O)Nc1ccc2c(c1)N(C(=O)c1ccco1)c1ccccc1CC2` [Compound 65], the IC50 (Table 4, read-out: IC50) was 75 nM.
`CC(C)OCC(=O)N1c2ccccc2CCc2ccc(NC(=O)OC(C)C)cc21` [Compound 30, isopropyl (5-(2-isopropoxyacetyl)-10,11-dihydro-5H-dibenzo[b,f]azepin-3-yl)carbamate] gave an IC50 [1] of 60 nM.
Work on `CC(C)OC(=O)Nc1ccc2c(c1)N(C(=O)COCC(C)(C)C)c1ccccc1CC2` [Compound 32, isopropyl (5-(2-(neopentyloxy)acetyl)-10,11-dihydro-5H-dibenzo[b,f]azepin-3-yl)carbamate] yielded an IC50 [1] of 21 nM.
Work on `CC(C)OC(=O)Nc1ccc2c(c1)N(C(=O)OCC(C)(C)C)c1ccccc1CC2` [Compound 57] yielded an IC50 (Table 4, read-out: IC50) of 25 nM.

Source: patent US9908890B2, “Selective inhibitors of constitutive androstane receptor” (ST. JUDE CHILDREN'S RESEARCH HOSPITAL, priority 2014, dated 2018)
